Patent publication US12435066B2, “Substituted tricyclic compounds” (LUPIN LIMITED, priority 2019, dated 2025)

What was measured:
[1] = system: pERK in DLD1 cells; assay: ERK phosphorylation assay after EGF stimulation; assay type: cell-based; conditions: Homo sapiens, DLD-1, compound 2 h, 200 ng/ml hEGF 5 minutes, alphascreen pERK, read-out: ERK phosphorylation inhibition IC50
Method in brief: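 DLD1 cells pretreated 2 h with compound, then stimulated 5 minutes with 200 ng/ml hEGF. Lysates assayed for ERK1/2 p-T202/Y204 by AlphaScreen SureFire, read after 2 h at 25-28° C.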

[2] = target: T1, hSOS1 and hKRASG12C (Homo sapiens, UniProt Q07889); assay: biochemical
T1 sequence (Q07889 564-1049): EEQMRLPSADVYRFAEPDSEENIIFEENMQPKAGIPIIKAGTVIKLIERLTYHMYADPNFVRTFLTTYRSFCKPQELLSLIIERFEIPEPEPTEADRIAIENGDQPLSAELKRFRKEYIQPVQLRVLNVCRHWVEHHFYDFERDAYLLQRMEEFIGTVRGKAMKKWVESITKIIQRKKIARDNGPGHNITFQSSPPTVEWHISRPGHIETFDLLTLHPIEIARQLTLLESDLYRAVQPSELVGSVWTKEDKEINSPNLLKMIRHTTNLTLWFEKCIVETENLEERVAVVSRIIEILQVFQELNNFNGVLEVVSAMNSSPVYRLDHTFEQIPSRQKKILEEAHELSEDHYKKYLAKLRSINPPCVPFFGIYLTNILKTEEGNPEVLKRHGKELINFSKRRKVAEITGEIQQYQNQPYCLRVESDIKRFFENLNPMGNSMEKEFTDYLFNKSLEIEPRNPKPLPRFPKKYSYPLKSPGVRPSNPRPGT

[3] = target: T2, hSOS1 mediated nucleotide exchange on hKRASG12C (Homo sapiens, UniProt Q07889); assay: biochemical
T2 sequence (Q07889 564-1049): T1 sequence (Q07889 564-1049)
Procedure: Example-127: Guanine Nucleotide Exchange Assay (GNEA)
GNEA assay was conducted to evaluate the effects of compounds on the nucleotide exchange on hKRASG12C mediated by hSOS1. Inhibitory effect of compounds on HIS-hSOS1, 564-1049aa mediated GTP loading onto GST-hKRASG12C, 1-169aa both expressed and purified in-house was assessed using HTRF detection technology in biochemical assay. Compounds were pre-incubated with hSOS1 working solution containing 10-50 nM hSOS1 and 200 nM EDA-GTP-DY-647P1 (Custom manufactured, Jena Biosciences) per well of a 384 well plate (Perkin Elmer, Cat #6007290) for 10 min at 20° C. in the assay buffer containing 10 mM HEPES, pH 7.4, 150 mM NaCl, 5 mM MgCl2, 1 mM DTT, 0.05% BSA fraction V and 0.0025% Igepal. Reaction was initiated by adding working solution of hKRASG12C containing 25-125 nM hKRASG12C and MAb Anti-GST-Tb (#61GSTTLA, Cisbio BioAssays) in assay buffer. Total assay volume was 15 μL. Reaction was continued for 30-60 min at 20° C. HTRF signal was recorded in PHERAStar microplate reader. Ratio of signal obtained at 665 nm and 620 nm was used to compute the percent inhibition of compound as follows.
Where, Positive control=hSOS1+EDA-GTP-DY-647P1+hKRASG12C+MAb Anti-GST-Tb Negative control=EDA-GTP-DY-647P1+hKRASG12C+MAb Anti-GST-Tb

Compound `Cc1nc(N[C@H](C)c2cccc(C(F)(F)C(C)(C)O)c2F)c2cc(N3C[C@@H]4[C@@H](CO)[C@@H]4C3)c3c(c2n1)CCC3` [Compound 58, 1,1-difluoro-1-(2-fluoro-3-((R)-1-((6-((1R,5S,6R)-6-(hydroxymethyl)-3-azabicyclo[3.1.0]hexan-3-yl)-2-methyl-8,9-dihydro-7H-cyclopenta[h]quinazolin-4-yl)amino)ethyl)phenyl)-2-methylpropan-2-ol] has an IC50 [1] of 1 to 200 nM, an IC50 [2] of 1 to 10 nM and an IC50 [3] of 1 to 30 nM.
For `Cc1nc(N[C@H](C)c2cccc(C(F)(F)C(C)(C)O)c2F)c2cc(N3CCOCC3)c3c(c2n1)CCC3` [Compound 59, (R)-1,1-difluoro-1-(2-fluoro-3-(1-((2-methyl-6-morpholino-8,9-dihydro-7H-cyclopenta[h]quinazolin-4-yl)amino)ethyl)phenyl)-2-methylpropan-2-ol], the IC50 [1] was 1 to 200 nM, the IC50 [2] was 1 to 10 nM and the IC50 [3] was 1 to 30 nM.
`Cc1nc(N[C@H](C)c2cccc(C(F)(F)C(C)(C)O)c2F)c2cc(N3CCC(C)(CO)CC3)c3c(c2n1)CCC3` [Compound 60, (R)-1,1-difluoro-1-(2-fluoro-3-(1-((6-(4-(hydroxymethyl)-4-methylpiperidin-1-yl)-2-methyl-8,9-dihydro-7H-cyclopenta[h]quinazolin-4-yl)amino)ethyl)phenyl)-2-methylpropan-2-ol] was tested, and the IC50 [1] was 1 to 200 nM, the IC50 [2] was 1 to 10 nM and the IC50 [3] was 1 to 30 nM.
Work on `COC[C@H]1CN(c2cc3c(N[C@H](C)c4cccc(C(F)(F)C(C)(C)O)c4F)nc(C)nc3c3c2CCC3)CCO1` [Compound 62, 1,1-difluoro-1-(2-fluoro-3-((R)-1-((6-((R)-2-(methoxymethyl)morpholino)-2-methyl-8,9-dihydro-7H-cyclopenta[h]quinazolin-4-yl)amino)ethyl)phenyl)-2-methylpropan-2-ol] yielded an IC50 [1] of 1 to 200 nM, an IC50 [2] of 1 to 10 nM and an IC50 [3] of 1 to 30 nM.
`COCC1(O)CCN(c2cc3c(N[C@H](C)c4cccc(C(F)(F)C(C)(C)O)c4F)nc(C)nc3c3c2CCC3)CC1` [Compound 63, (R)-1-(4-((1-(3-(1,1-difluoro-2-hydroxy-2-methylpropyl)-2-fluorophenyl)ethyl)amino)-2-methyl-8,9-dihydro-7H-cyclopenta[h]quinazolin-6-yl)-4-(methoxymethyl)piperidin-4-ol] was tested, and the IC50 [1] was 1 to 200 nM, the IC50 [2] was 1 to 10 nM and the IC50 [3] was 1 to 30 nM.
Compound `Cc1nc(N[C@H](C)c2cccc(C(F)(F)C(C)(C)O)c2F)c2cc(N3CCC(CO)CC3)c3c(c2n1)CCC3` [Compound 64, (R)-1,1-difluoro-1-(2-fluoro-3-(1-((6-(4-(hydroxymethyl)piperidin-1-yl)-2-methyl-8,9-dihydro-7H-cyclopenta[h]quinazolin-4-yl)amino)ethyl)phenyl)-2-methylpropan-2-ol] has an IC50 [1] of 1 to 200 nM, an IC50 [2] of 1 to 10 nM and an IC50 [3] of 1 to 30 nM.
`Cc1nc(N[C@H](C)c2cccc(C(F)(F)C(C)(C)O)c2F)c2cc(N3CCC(O)CC3)c3c(c2n1)CCC3` [Compound 65, (R)-1-(4-((1-(3-(1,1-difluoro-2-hydroxy-2-methylpropyl)-2-fluorophenyl)ethyl)amino)-2-methyl-8,9-dihydro-7H-cyclopenta[h]quinazolin-6-yl)piperidin-4-ol] was tested, and the IC50 [1] was 1 to 200 nM, the IC50 [2] was 1 to 10 nM and the IC50 [3] was 1 to 30 nM.
`COCC1(O)CCN(c2cc3c(N[C@H](C)c4cccc(C(F)(F)CO)c4F)nc(C)nc3c3c2CCC3)CC1` [Compound 68, (R)-1-(4-((1-(3-(1,1-difluoro-2-hydroxyethyl)-2-fluorophenyl)ethyl)amino)-2-methyl-8,9-dihydro-7H-cyclopenta[h]quinazolin-6-yl)-4-(methoxymethyl)piperidin-4-ol] showed an IC50 [1] of 1 to 200 nM, an IC50 [2] of 1 to 10 nM and an IC50 [3] of 1 to 30 nM.
With `COCC1(O)CCN(c2cc3c(N[C@H](C)c4cccc(C(F)(F)COC)c4F)nc(C)nc3c3c2CCC3)CC1` [Compound 69, (R)-1-(4-((1-(3-(1,1-difluoro-2-methoxyethyl)-2-fluorophenyl)ethyl)amino)-2-methyl-8,9-dihydro-7H-cyclopenta[h]quinazolin-6-yl)-4-(methoxymethyl) piperidin-4-ol] the IC50 [1] was 1 to 200 nM, the IC50 [2] was 1 to 10 nM and the IC50 [3] was 1 to 30 nM.
